Literature values as cited in article PMC7383075 (Journal of Nuclear Medicine, 2020).

What was measured:
insulinomas = settings: at the proper dilution; ref [23]
Excerpt: A targeted approach, as described in this study, has the benefit of creating signals with higher contrast between the target and surrounding tissue and therefore more precise delineation of the lesion. […] Re ...

[1] = system: primary breast cancer lesions, as well as peritoneal metastases of colorectal cancer; settings: primary breast cancer lesions and peritoneal metastases of colorectal cancer; ref [29],[30]
Excerpt: Contributing to the potential for clinical translation of this tracer is the use of the NIR fluorophore IRDye 800CW. This dye is widely used in the development of targeted fluorescence imaging approaches, and several studies already have shown the first successful clinical applications using this fluorophore. […] Also, IRDye 800CW coupled to the monoclonal antibody cetuximab was successfully used fo ...

Compound | uptake in insulinomas versus normal pancreatic tissue (insulinomas) | detection of cancer lesions [1]
CN(C)c1ccc2nc3ccc(=[N+](C)C)cc-3sc2c1 [methylene blue] | higher uptake in insulinomas than in normal pancreatic tissue | 
IRDye 800CW coupled to the monoclonal antibody bevacizumab: IRDye 800CW coupled to the monoclonal antibody bevacizumab |  | shown to be feasible
